# In patent US6395719B1, “Methods for increasing levels of acetylcholine” (Eli Lilly and Company, priority 1998, dated 2002):
# Columns and labels:
# [1] = tested on: choline acetyltransferase (ChAT); experiment: ChAT activity in hippocampus and frontal cortex homogenates of ovariectomized rats, radio-labelled assay of acetylcholine bio-synthesis; type: in vivo, female Sprague-Dawley rats; details: daily s.c. or oral gavage for 3 or 10 days, raloxifene HCl 3 mg/kg/day, estradiol benzoate 0.03 or 0.3 mg/kg/day; for levels of ChAT, difference from the sham controls: OVX rats
# Procedure: Forty female Sprague-Dawley rats (weight range of 300 to 325 g, six months old) are obtained from Harlan. The animals are either bilaterally ovariectomized (OVX) or exposed to a Sham surgical procedure, and then shipped after two weeks. Upon arrival, they are housed in metal hanging cages in groups of 3 or 4 per cage and have ad libitum access to food and water for one week. Room temperature is maintained at 22.2°±1.70° C. with a minimum relative humidity of 40%. The photoperiod in the room is 12 hours light and 12 hours dark.
# The animals are dosed daily by subcutaneous injection or oral gavage with either raloxifene hydrochloride, at 3 mg/kg/day in a vehicle containing 10% cyclodextrin, estradiol benzoate at 0.03 or 0.3 mg/kg/day, or vehicle control. Animals were treated for 3 or 10 days. There are twenty animals per each dosing regimen. At the appropriate time intervals, the animals are sacrificed and their brains dissected. The particular portions of the brains are homogenized and assayed. Homogenates from the hippocampus and frontal cortex were processed and determination of ChAT activity was made by a radio-labelled assay of the bio-synthesis of acetylcholine. This procedure may be found in Schoepp et al., J. Neural Transmiss., 78:183-193, 1989, the teachings of which are incorporated by reference.
# [2] = tested on: cognitive and memory functions; experiment: Prophylactic use: cognitive and memory function by standard tests in peri- or post-menopausal women; type: in vivo, human; details: 60 mg/day oral for 1-5 years
# Procedure: The methods of the present invention may also be employed in a prophylactic modality. For example, a group of peri- or post-menopausal women may have their cognitive and memory function evaluated by standard tests. Following the establishment of this baseline, the women are administered raloxifene hydrochloride at 60 mg/day, via the oral route, for a period 1-5 years.
# Alzheimer's disease = experiment: Amelioration of Alzheimer's disease in post-menopausal women on chronic administration; type: in vivo, human; details: post-menopausal women with Alzheimer's disease; 60 mg per day oral; after 2-12 months
# Excerpt: Thus, the current invention provides methods for the treatment and prophylaxis of syndromes related to the loss of memory, learning, and cognitive function, often seen in women who are estrogen deprived, especially post-menopausal women. An example of such a syndrome is senile dementia of the Alzheimer's type. Beneficial effects, such as a decrease in memory loss, associated with administration of a compound of this invention become apparent after chronic administration.
structure (smiles),measurement,setting,value
"C[C@]12CC[C@@H]3c4ccc(OC(=O)c5ccccc5)cc4CC[C@H]3[C@@H]1CC[C@@H]2O [estradiol benzoate, reference compound]","levels of ChAT, difference from the sham controls",[1],insignificant difference
same,levels of ChAT versus the OVX controls,[1],significantly (p<0.05) increased
"Cl.O=C(c1ccc(OCCN2CCCCC2)cc1)c1c(-c2ccc(O)cc2)sc2cc(O)ccc12 [raloxifene hydrochloride, [2-(4-hydroxyphenyl)-6-hydroxybenzo[b]thien-3-yl][4-[2-(1-piperidinyl)ethoxy]phenyl]methanone hydrochloride]",loss of cognitive and memory functions relative to placebo,[2],decrease in loss of these functions
same,"levels of ChAT, difference from the sham controls",[1],insignificant difference
same,levels of ChAT versus the OVX controls,[1],significantly (p<0.05) increased
same,effect on Alzheimer's disease,Alzheimer's disease,amelioration of their disease
